Measured values taken from ChEMBL document CHEMBL4043204, “meso-Dihydroguaiaretic acid derivatives with antibacterial and antimycobacterial activity” (Bioorg Med Chem, 2017).
Values after ≈ are worked out from the molar mass of the structure shown. Active and inactive are the calls of the source. No cut-off for these calls is given here.

What was measured:
Type in all cases: functional
[1] = tested on: Mycobacterium tuberculosis; assay: Antimycobacterial activity against isoniazid/rifampicin/streptomycin-resistant Mycobacterium tuberculosis G133 assessed as inhibition of mycobacterial growth incubated for 2 weeks by MABA method; details: for MIC: Mycobacterium tuberculosis, G133, 336 h
[2] = tested on: Mycobacterium tuberculosis; assay: Antimycobacterial activity against isoniazid/rifampicin/ethambutol-resistant Mycobacterium tuberculosis G122 assessed as inhibition of mycobacterial growth incubated for 2 weeks by MABA method; details: for MIC: Mycobacterium tuberculosis, G122, 336 h
[3] = tested on: Mycobacterium tuberculosis; assay: Antimycobacterial activity against isoniazid/rifampicin/ethambutol-resistant Mycobacterium tuberculosis G122 assessed as inhibition of mycobacterial growth up to 50 ug/ml incubated for 2 weeks by MABA method
[4] = tested on: Mycobacterium tuberculosis; assay: Antimycobacterial activity against isoniazid/rifampicin/streptomycin-resistant Mycobacterium tuberculosis G133 assessed as inhibition of mycobacterial growth up to 50 ug/ml incubated for 2 weeks by MABA method
[5] = tested on: Mycobacterium tuberculosis; assay: Antibacterial activity against multidrug-resistant Mycobacterium tuberculosis

| SMILES | -logMIC [1] | MIC [1] [µg/mL] | -logMIC [2] | MIC [2] [µg/mL] | growth inhibition (GI) [3] | growth inhibition (GI) [4] | MIC [5] [µg/mL] |
| --- | --- | --- | --- | --- | --- | --- | --- |
| COc1cc(C[C@@H](C)[C@@H](C)Cc2ccc(OC(C)=O)c(OC)c2)ccc1OC(C)=O | 4.23 | > 50 | 4.23 | > 50 | – | – | – |
| COc1cc(C[C@@H](C)[C@@H](C)Cc2ccc(OC(=O)c3ccccc3[N+](=O)[O-])c(OC)c2)ccc1OC(=O)c1ccccc1[N+](=O)[O-] | 4.03 | – | 4.03 | – | inactive | inactive | – |
| CCCCCCCC/C=C\CCCCCCCC(=O)Oc1ccc(C[C@@H](C)[C@@H](C)Cc2ccc(OC(=O)CCCCCCC/C=C\CCCCCCCC)c(OC)c2)cc1OC | 4.58 | – | 4.58 | – | inactive | inactive | – |
| COc1cc(C[C@@H](C)[C@@H](C)Cc2ccc(OC(=O)c3ccccn3)c(OC)c2)ccc1OC(=O)c1ccccn1 | 3.91 | – | 3.91 | – | inactive | inactive | – |
| COc1cc(C[C@@H](C)[C@@H](C)Cc2ccc(OC(=O)c3ccc(Br)cc3)c(OC)c2)ccc1OC(=O)c1ccc(Br)cc1 | 4.09 | – | 4.09 | – | inactive | inactive | – |
| COc1cc(C[C@@H](C)[C@@H](C)Cc2ccc(OCCN3CCCC3)c(OC)c2)ccc1OCCN1CCCC1 | – | 12.5 (≈ 23.8 µM) | – | 12.5 (≈ 23.8 µM) | – | – | – |
| CCCC(=O)Oc1ccc(C[C@@H](C)[C@@H](C)Cc2ccc(OC(=O)CCC)c(OC)c2)cc1OC | 4.03 | – | 4.03 | – | inactive | inactive | – |
| CCCCCCCCCCCCCCCC(=O)Oc1ccc(C[C@@H](C)[C@@H](C)Cc2ccc(OC(=O)CCCCCCCCCCCCCCC)c(OC)c2)cc1OC | 4.02 | – | 4.02 | – | inactive | inactive | – |
| COc1cc(C[C@@H](C)[C@@H](C)Cc2ccc(OC(=O)c3cccnc3)c(OC)c2)ccc1OC(=O)c1cccnc1 | 4.2 | > 50 | 4.2 | > 50 | – | – | – |
| COc1cc(C[C@@H](C)[C@@H](C)Cc2ccc(OCCN(C)C)c(OC)c2)ccc1OCCN(C)C | 4.62 | 12.5 (≈ 26.4 µM) | 4.62 | 12.5 (≈ 26.4 µM) | – | – | – |
| COc1cc(C[C@@H](C)[C@@H](C)Cc2ccc(OCCN3CCOCC3)c(OC)c2)ccc1OCCN1CCOCC1 | – | 25 (≈ 44.9 µM) | – | 6.25 (≈ 11.2 µM) | – | – | – |
| CCCCCCCCCCCCCCCCCC(=O)Oc1ccc(C[C@@H](C)[C@@H](C)Cc2ccc(OC(=O)CCCCCCCCCCCCCCCCC)c(OC)c2)cc1OC | 3.85 | – | 3.85 | – | inactive | inactive | – |
| COc1cc(C[C@@H](C)[C@@H](C)Cc2ccc(OC(=O)c3ccccc3)c(OC)c2)ccc1OC(=O)c1ccccc1 | 4.14 | – | 4.14 | – | inactive | inactive | – |
| COc1cc(C[C@@H](C)[C@@H](C)Cc2ccc(OCCN3CCCCC3)c(OC)c2)ccc1OCCN1CCCCC1 | – | 6.25 (≈ 11.3 µM) | – | 6.25 (≈ 11.3 µM) | – | – | – |
| CCN(CC)CCOc1ccc(C[C@@H](C)[C@@H](C)Cc2ccc(OCCN(CC)CC)c(OC)c2)cc1OC | 4.25 | 25 (≈ 47.3 µM) | 4.25 | 25 (≈ 47.3 µM) | – | – | – |
| COc1cc(C[C@@H](C)[C@@H](C)Cc2ccc(OC(=O)c3cnccn3)c(OC)c2)ccc1OC(=O)c1cnccn1 | 4.23 | > 50 | 4.23 | > 50 | – | – | – |
| COc1cc(C[C@@H](C)[C@@H](C)Cc2ccc(OC(=O)c3ccc(Br)cc3)c(OC)c2)ccc1O (racemic) | 3.97 | > 50 | 3.98 | > 50 | – | – | – |
| COc1cc(C[C@@H](C)[C@@H](C)Cc2ccc(OC(=O)c3ccccc3[N+](=O)[O-])c(OC)c2)ccc1O (racemic) | 3.93 | > 50 | 4.24 | 50 (≈ 104 µM) | – | – | – |

| SMILES | -logMIC [1] | MIC [1] [µg/mL] | -logMIC [2] | MIC [2] [µg/mL] | growth inhibition (GI) [3] | growth inhibition (GI) [4] | MIC [5] [µg/mL] |
| --- | --- | --- | --- | --- | --- | --- | --- |
| CCCCCCCCCCCCCCCCCC(=O)Oc1ccc(C[C@H](C)[C@H](C)Cc2ccc(O)c(OC)c2)cc1OC (racemic) | 3.84 | – | 3.84 | – | inactive | inactive | – |
| COc1cc(C[C@@H](C)[C@@H](C)Cc2ccc(OCCN3CCCCC3)c(OC)c2)ccc1O (racemic) | – | 25 (≈ 56.6 µM) | – | 25 (≈ 56.6 µM) | – | – | – |
| COc1cc(C[C@@H](C)[C@@H](C)Cc2ccc(OC(C)=O)c(OC)c2)ccc1O (racemic) | 4.07 | > 50 | 4.07 | > 50 | – | – | – |
| CCCCCCCC/C=C\CCCCCCCC(=O)Oc1ccc(C[C@H](C)[C@H](C)Cc2ccc(O)c(OC)c2)cc1OC (racemic) | 3.9 | – | 3.9 | – | inactive | inactive | – |
| COc1cc(C[C@@H](C)[C@@H](C)Cc2ccc(OC(=O)c3ccccc3)c(OC)c2)ccc1O (racemic) | 4 | > 50 | 4.01 | > 50 | – | – | – |
| CCCC(=O)Oc1ccc(C[C@H](C)[C@H](C)Cc2ccc(O)c(OC)c2)cc1OC (racemic) | 3.93 | – | 3.93 | – | inactive | inactive | – |
| COc1cc(C[C@@H](C)[C@@H](C)Cc2ccc(OC(=O)c3cnccn3)c(OC)c2)ccc1O (racemic) | 4.07 | > 50 | 4.07 | > 50 | – | – | – |
| CCCCCCCCCCCCCCCC(=O)Oc1ccc(C[C@H](C)[C@H](C)Cc2ccc(O)c(OC)c2)cc1OC (racemic) | 3.93 | – | 3.93 | – | inactive | inactive | – |
| COc1cc(C[C@@H](C)[C@@H](C)Cc2ccc(OCCN3CCCC3)c(OC)c2)ccc1O (racemic) | 4.95 | 25 (≈ 58.5 µM) | 4.95 | 25 (≈ 58.5 µM) | – | – | – |
| COc1cc(C[C@@H](C)[C@@H](C)Cc2ccc(OC(=O)c3cccnc3)c(OC)c2)ccc1O (racemic) | 4.05 | 50 (≈ 115 µM) | 4.05 | 50 (≈ 115 µM) | – | – | – |
| COc1cc(C[C@@H](C)[C@@H](C)Cc2ccc(OC(=O)c3ccccn3)c(OC)c2)ccc1O (racemic) | 3.86 | > 50 | 3.86 | 25 (≈ 57.4 µM) | – | – | – |
| COc1cc(C[C@@H](C)[C@@H](C)Cc2ccc(OCCN(C)C)c(OC)c2)ccc1O (racemic) | 4.23 | > 50 | 4.23 | > 50 | – | – | – |
| COc1cc(C[C@@H](C)[C@@H](C)Cc2ccc(OC)c(OC)c2)ccc1O (racemic) | 3.94 | 50 (≈ 145 µM) | 3.94 | 50 (≈ 145 µM) | – | – | – |
| COc1cc(C[C@@H](C)[C@@H](C)Cc2ccc(OCCN3CCOCC3)c(OC)c2)ccc1O (racemic) | – | – | – | – | inactive | inactive | – |
| CC[C@@H](CO)NCCN[C@@H](CC)CO [ETHAMBUTOL] | – | 3.12 (≈ 15.3 µM) | – | 6.25 (≈ 30.6 µM) | – | – | – |
| C[C@H]1COc2c(N3CCN(C)CC3)c(F)cc3c(=O)c(C(=O)O)cn1c23.C[C@H]1COc2c(N3CCN(C)CC3)c(F)cc3c(=O)c(C(=O)O)cn1c23.O [LEVOFLOXACIN] | – | 1.56 | – | 6.25 | – | – | – |
| COc1cc(C[C@@H](C)[C@@H](C)Cc2ccc(O)c(OC)c2)ccc1O [MESODIHYDROGUAIARETIC ACID] | – | > 50 | – | > 50 | – | – | 12.5 to 50 (≈ 37.8 to 151 µM) |
| COc1ccc(C[C@@H](C)[C@@H](C)Cc2ccc(OC)c(OC)c2)cc1OC [TERAMEPROCOL] | 4.35 | – | 4.95 | – | inactive | inactive | – |
